Values of other authors, collected in article PMC8170883 (Viruses, 2021).

Legend:
SARS-Cov-2 = conditions: cell cultures
SARS-CoV-2 nsp12 (RdRp) = conditions: blocks binding of RNA to the enzyme

Row | SMILES | Antiviral effect against SARS-CoV-2 (SARS-Cov-2) | Inhibition of RdRp (SARS-CoV-2 nsp12 (RdRp))
1 | Cc1ccc(C(=O)Nc2ccc(S(=O)(=O)O)c3cc(S(=O)(=O)O)cc(S(=O)(=O)O)c23)cc1NC(=O)c1cccc(NC(=O)Nc2cccc(C(=O)Nc3cc(C(=O)Nc4ccc(S(=O)(=O)O)c5cc(S(=O)(=O)O)cc(S(=O)(=O)O)c45)ccc3C)c2)c1 [Suramin] | antiviral effects | potent inhibitor
2 | CCN(CC)CCCC(C)Nc1ccnc2cc(Cl)ccc12 (stereo not shown) [Chloroquine, chloroquine] | antiviral effects | –
3 | CCN(CC)CCCC(C)Nc1c2ccc(Cl)cc2nc2ccc(OC)cc12 (stereo not shown) [Quinacrine, quinacrine] | antiviral effects | –
